The nature of assay [1]: Inhibition of beta lactamase SHV1.
For assay [2], the target named is Beta-lactamase OXA-1 (Escherichia coli) (UniProt P13661). Put plainly: Inhibition of Escherichia coli beta lactamase OXA-1.
The nature of assay [3]: Inhibition of beta lactamase TEM1.
The nature of assay [4]: Inhibition of beta lactamase P99.

Chain of Beta-lactamase OXA-1 (Escherichia coli) (P13661 whole entry): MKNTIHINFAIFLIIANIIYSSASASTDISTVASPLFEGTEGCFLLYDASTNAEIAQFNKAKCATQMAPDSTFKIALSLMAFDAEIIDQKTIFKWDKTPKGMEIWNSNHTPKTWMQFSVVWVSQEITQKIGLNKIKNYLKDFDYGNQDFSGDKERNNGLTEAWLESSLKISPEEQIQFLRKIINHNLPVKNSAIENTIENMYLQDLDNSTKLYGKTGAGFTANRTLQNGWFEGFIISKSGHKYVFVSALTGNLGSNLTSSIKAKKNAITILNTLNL

As for `C[C@]1(Cn2ccnn2)[C@H](C(=O)O)N2C(=O)C[C@H]2S1(=O)=O`, the Kinact in assay [1] was 330 nM.

Take `C[C@]1(COC(=O)Cc2ccccc2)[C@H](C(=O)O)N2C(=O)/C(=C/c3ccccn3)[C@H]2S1(=O)=O`: the values for the Kinact in assay [1] and in assay [2] were 42 nM and 1 µM, respectively. The figures for the half-maximal inhibitory concentration (IC50) in assay [3] and in assay [4] were 40 nM and 1 nM, respectively.

(Values after ChEMBL document CHEMBL1156475, “Efficient inhibition of class A and class D beta-lactamases by Michaelis complexes” (J Biol Chem, 2007).)
